Among the data in US20170348258A1, “3-Amino Benzamide Derivative Serving As B-Lactam Auxiliary Antibiotic, Preparation Method and Use Thereof” (THE HONG KONG POLYTECHNIC UNIVERSITY, priority 2014, published 2017) are MIC values, retold here.

What all share (test): Antibacterial susceptibility test (MIC, microbroth dilution)
Format in all cases: cell-based
Background: Broth dilution looks for growth in wells or tubes with falling amounts of substance.

One test relates to B. subtilis 168. The conditions noted are these: 18 hours at 37° C., >90% inhibition of bacterial growth, read-out: MIC, BS 168. The source says: (§1) The bacterial strains used in microbial susceptibility test were E. coli, S. aureus 29213 and B. subtilis 168. E. coli and S. aureus 29213 were obtained from the laboratory of the Hong Kong Polytechnic University. B. subtilis 168 was purchased from American Type Culture Collection (USA). The mammalian cell lines L929 (mouse peritoneal fibroblast), LCC6 (a wild type breast cancer cell line), LCC6MDR (P-gp over-expressed breast cancer cell line) were stocks in our department. Nutrient Agar, tryptone and yeast extract were purchased from Oxoid Limited (Nepean, Ontario, Canada). Luria-Bertani (LB) medium was prepared from 2 g tryptone, 1 g yeast extract, and 2 g sodium chloride in 200 ml deionized water and sterilized. Müller-Hinton broth (MHB), cation-adjusted Müller-Hinton broth (MHB) and trypticase soy broth (TSB) for microbial susceptibility test were purchased from Becton, Dickinson and Company (New Jersey, USA). A microplate reader (Bio-Rad Laboratories Model 680) is used to measure bacterial growth and cytotoxicity. An Olympus FSX100® Bio Imaging Navigator Microscope was used to observe the morphology of B. subtilis cell.
(§2) The minimum inhibitory concentration (MIC) of each compound was determined using microbroth dilution method according to the National Committee for Clinical Laboratory Standards (CLSI) guidelines. All Compounds were dissolved in DMSO and diluted in a serial two-fold manner. A single colony of bacterial strain on a TSB agar plate was inoculated in 5 mL MHB or CA-MHB. The bacterial cells were incubated at 37° C. until the optimal density (OD600) of the growing cells reached 1.0. The cells were then diluted to a final concentration of approximately 5×10^5 CFU/mL in a serial two-fold manner in a 96-well microtiter plate (Iwaki, Japan). Compound 3 and PC190723 were used as positive controls. […] Table 1 below summarizes the MIC of all synthesized compounds.

For the next test, the system named is E. coli. The conditions noted are these: 18 hours at 37° C., >90% inhibition of bacterial growth.
Source text: as §1, §2

The next test relates to S. aureus 29213. The conditions noted are these: 18 hours at 37° C., >90% inhibition of bacterial growth.
Source text: as §1, §2

As a reminder, the MIC is the lowest concentration found to suppress growth.

Structures are written as SMILES. Converted amounts (≈) assume the structure as drawn. Like-named read-outs stand apart in the source and are kept apart here.

For the compound `CCCCOCCCCNc1ccc(F)c(C(N)=O)c1F` [Compound F350, 3-((4′-butoxy)butylamino)-2,6-difluorobenzamide], the minimal inhibitory concentration (MIC) is over 100 µM in the test on B. subtilis 168 (Bacillus subtilis, 168); over 100 µM with E. coli (Escherichia coli); over 100 µM against S. aureus 29213 (Staphylococcus aureus, 29213).
For the compound `CCCCCCCNc1ccc(F)c(C(N)=O)c1F` [Compound F391, 2,6-difluoro-3-(heptylamino)benzamide], the MIC is 50 µM (≈ 13.5 µg/mL) in the test on B. subtilis 168 (Bacillus subtilis, 168); over 100 µM with E. coli (Escherichia coli); 50 µM (≈ 13.5 µg/mL) against S. aureus 29213 (Staphylococcus aureus, 29213).
With `NC(=O)c1c(F)ccc(N2CCCCC2)c1F` [Compound F358, 2,6-difluoro-3-(piperidin-1-yl)benzamide], the minimal inhibitory concentration (MIC) with B. subtilis 168 (Bacillus subtilis, 168) was over 100 µM; with E. coli (Escherichia coli), over 100 µM; in the test with S. aureus 29213 (Staphylococcus aureus, 29213), over 100 µM.
For `NC(=O)c1c(F)ccc(NCc2cccc(OCc3ccc(C(F)(F)F)cc3)c2)c1F` [Compound F378, 2,6-difluoro-3-((3′-((4″-(trifluoromethyl)benzyl)oxy)benzyl)amino)benzamide], the minimal inhibitory concentration (MIC) in the test with B. subtilis 168, in the test on E. coli and against S. aureus 29213 was over 100 µM throughout.
In the case of `CCCCCCCCNc1cccc(C(N)=O)c1` [Compound F412, 3-(octylamino)benzamide], the MIC was 25 µM (≈ 6.21 µg/mL) with B. subtilis 168 (Bacillus subtilis, 168); over 100 µM in the test on E. coli (Escherichia coli); over 100 µM with S. aureus 29213 (Staphylococcus aureus, 29213).
Turning to `CCCCCCCCNc1ccc(F)c(C(N)=O)c1F` [Compound F333, 2,6-difluoro-3-(octylamino)benzamide], the MIC in the test on B. subtilis 168 (Bacillus subtilis, 168) is 6.25 µM (≈ 1.78 µg/mL); against E. coli (Escherichia coli) it was over 100 µM; in the test with S. aureus 29213 (Staphylococcus aureus, 29213), 50 µM (≈ 14.2 µg/mL).
For `CC(C)=CCC/C(C)=C/CNc1ccc(F)c(C(N)=O)c1F` [Compound F369, (E)-3-((3,7-dimethyl-2,6-octadien-1-yl)amino)-2,6-difluorobenzamide], the minimal inhibitory concentration (MIC) in the test with B. subtilis 168 (Bacillus subtilis, 168) was 50 µM (≈ 15.4 µg/mL); with E. coli (Escherichia coli) it was over 100 µM; in the test with S. aureus 29213 (Staphylococcus aureus, 29213), over 100 µM.
In the case of `CCCCCCCCCNc1c(Br)cc(F)c(C(N)=O)c1F` [Compound F371, 4-bromo-2,6-difluoro-3-(nonylamino)benzamide], the MIC with B. subtilis 168 (Bacillus subtilis, 168) is 6.25 µM (≈ 2.36 µg/mL); in the test on E. coli (Escherichia coli), over 100 µM; in the test with S. aureus 29213 (Staphylococcus aureus, 29213), over 100 µM.
Turning to `CCCCCCCCCNc1cccc(C(N)=O)c1` [Compound F411, 3-(nonylamino)benzamide], the MIC is 6.25 µM (≈ 1.64 µg/mL) with B. subtilis 168 (Bacillus subtilis, 168); over 100 µM in the test on E. coli (Escherichia coli); over 100 µM in the test on S. aureus 29213 (Staphylococcus aureus, 29213).
`NC(=O)c1c(F)ccc(N(Cc2ccc(F)cc2F)Cc2ccc(F)cc2F)c1F` [Compound F365, 3-(bis(2′,4′-difluorobenzyl)amino)-2,6-difluorobenzamide]: the results for the MIC in the test on B. subtilis 168, with E. coli and against S. aureus 29213 were under 50 µM, over 100 µM and over 100 µM, respectively.
In the case of `NC(=O)c1c(F)ccc(NCc2ccc(F)cc2F)c1F` [Compound F364, 3-((2′,4′-difluorobenzyl)amino)-2,6-difluorobenzamide], the MIC in the test on B. subtilis 168, against E. coli and in the test with S. aureus 29213 was over 100 µM each time.
On to `CCCCCCCCCCNc1ccc(F)c(C(N)=O)c1F` [Compound F334, 3-(decylamino)-2,6-difluorobenzamide], for which the MIC is over 100 µM in the test with B. subtilis 168 (Bacillus subtilis, 168); over 100 µM in the test on E. coli (Escherichia coli); over 100 µM against S. aureus 29213 (Staphylococcus aureus, 29213).
Regarding `NC(=O)c1c(F)ccc(NCc2ccc(F)c(F)c2)c1F` [Compound F362, 3-((3′,4′-difluorobenzyl)amino)-2,6-difluorobenzamide], the minimal inhibitory concentration (MIC) with B. subtilis 168, against E. coli and against S. aureus 29213 was over 100 µM throughout.
Turning to `CCCCCCCCC(=O)Nc1ccc(F)c(C(N)=O)c1F` [Compound F368, 2,6-difluoro-3-nonanamidobenzamide], the minimal inhibitory concentration (MIC) with B. subtilis 168 (Bacillus subtilis, 168) was over 100 µM; against E. coli (Escherichia coli), over 100 µM; in the test with S. aureus 29213 (Staphylococcus aureus, 29213), over 100 µM.
Regarding `NC(=O)c1c(F)ccc(N(Cc2ccc(F)c(F)c2)Cc2ccc(F)c(F)c2)c1F` [Compound F363, 3-(bis(3′,4′-difluorobenzyl)amino)-2,6-difluorobenzamide], the MIC in the test with B. subtilis 168 is recorded as over 100 µM; against E. coli it was over 100 µM; with S. aureus 29213 it was 50 µM (≈ 21.2 µg/mL).
Consider `CCCCCCCCN(CC)c1ccc(F)c(C(N)=O)c1F` [Compound F410, 3-(ethyl(octyl)amino)-2,6-difluorobenzamide], for which the minimum inhibitory concentration (MIC) is 25 µM (≈ 7.81 µg/mL) with B. subtilis 168 (Bacillus subtilis, 168); over 100 µM against E. coli (Escherichia coli); 50 µM (≈ 15.6 µg/mL) with S. aureus 29213 (Staphylococcus aureus, 29213).
As for `NC(=O)c1c(F)ccc(NCc2c(F)cccc2F)c1F` [Compound F366, 3-((2′,6′-difluorobenzyl)amino)-2,6-difluorobenzamide], the minimal inhibitory concentration (MIC) in the test on B. subtilis 168, against E. coli and in the test with S. aureus 29213 was over 100 µM in each case.
`CCCCCOc1cccc(CNc2ccc(F)c(C(N)=O)c2F)c1` [Compound F376, 2,6-difluoro-3-((3′-(pentyloxy)benzyl)amino)benzamide]: the MIC with B. subtilis 168 was 12.5 µM (≈ 4.35 µg/mL); against E. coli, over 100 µM; against S. aureus 29213, 50 µM (≈ 17.4 µg/mL).
Regarding `CCCCCC/C=C\CNc1ccc(F)c(C(N)=O)c1F` [Compound F370, (Z)-2,6-difluoro-3-(2-nonenylamino)benzamide], the MIC in the test on B. subtilis 168 (Bacillus subtilis, 168) was 6.25 µM (≈ 1.85 µg/mL); against E. coli (Escherichia coli) it was over 100 µM; in the test on S. aureus 29213 (Staphylococcus aureus, 29213), 25 µM (≈ 7.41 µg/mL).
For `CCCCCCCCCNc1ccc(F)c(C(N)=O)c1` [Compound F342, 2-fluoro-5-(nonylamino)benzamide] the same measures were 25 µM (≈ 7.01 µg/mL), over 100 µM and over 100 µM.
`NC(=O)c1c(F)ccc(N(Cc2c(F)cccc2F)Cc2c(F)cccc2F)c1F` [Compound F367, 3-(bis(2′,6′-difluorobenzyl)amino)-2,6-difluorobenzamide]: the MIC with B. subtilis 168, against E. coli and with S. aureus 29213 was over 100 µM throughout.
Regarding `CCC(C)Oc1cccc(CNc2ccc(F)c(C(N)=O)c2F)c1` (stereo not drawn) [Compound F377, 3-((3′-(sec-butoxy)benzyl)amino)-2,6-difluorobenzamide], the MIC with B. subtilis 168, against E. coli and against S. aureus 29213 was over 100 µM in each case.
With `CCCCOc1cccc(CNc2ccc(F)c(C(N)=O)c2F)c1` [Compound F373, 3-((3′-butoxybenzyl)amino)-2,6-difluorobenzamide], the MIC in the test on B. subtilis 168 is given as 25 µM (≈ 8.36 µg/mL); with E. coli, over 100 µM; against S. aureus 29213 it was 50 µM (≈ 16.7 µg/mL).
On to `CCCCCCCCN(C)c1cccc(C(N)=O)c1` [Compound F414, 3-(methyl(octyl)amino)benzamide], for which the minimum inhibitory concentration (MIC) is over 100 µM with B. subtilis 168 (Bacillus subtilis, 168); over 100 µM against E. coli (Escherichia coli); over 100 µM against S. aureus 29213 (Staphylococcus aureus, 29213).
For the compound `CCCCCCCCN(C)c1ccc(F)c(C(N)=O)c1F` [Compound F409, 2,6-difluoro-3-(methyl(octyl)amino)benzamide], the MIC in the test on B. subtilis 168 (Bacillus subtilis, 168) is 25 µM (≈ 7.46 µg/mL); in the test with E. coli (Escherichia coli), over 100 µM; in the test on S. aureus 29213 (Staphylococcus aureus, 29213) it was 12.5 µM (≈ 3.73 µg/mL).
In the same order, the values of `NC(=O)c1c(F)ccc(N2CCCC2)c1F` [Compound F357, 2,6-difluoro-3-(pyrrolidin-1-yl)benzamide] are over 100 µM, over 100 µM and over 100 µM.
Turning to `CCCCCCCCCN(C)c1cccc(C(N)=O)c1` [Compound F413, 3-(methyl(nonyl)amino)benzamide], the MIC in the test on B. subtilis 168 (Bacillus subtilis, 168) was over 100 µM; in the test on E. coli (Escherichia coli) it was over 100 µM; in the test with S. aureus 29213 (Staphylococcus aureus, 29213) it was over 100 µM.
As for `CCCCCCCCCNc1cc(C(N)=O)c(F)cc1F` [Compound F345, 2,4-difluoro-5-(nonylamino)benzamide], the MIC in the test with B. subtilis 168 (Bacillus subtilis, 168) is 100 µM (≈ 29.8 µg/mL); against E. coli (Escherichia coli), over 100 µM; in the test on S. aureus 29213 (Staphylococcus aureus, 29213), over 100 µM.
